Test results taken from PMC6832265 (Molecules, 2019).

Assays:
[1] = target: T1, recombinant Tdp1 (residues 149–608) (Homo sapiens, UniProt Q9NUW8); assay: Intrinsic tryptophan fluorescence quenching binding assay; conditions: 10 µM Tdp1, 20 mM Tris, 250 mM NaCl, pH 8; triplicate
T1 construct: recombinant Tdp1 (residues 149–608) was obtained from GenScript; host or cells: E. coli BL21(DE3)
Experimental: The binding of the synthesized compounds to recombinant Tdp1 was also tested (Table 1 and Table 2) by using an intrinsic tryptophan fluorescence quenching assay. […] As our compounds are aromatic in nature, there is a possibility that they may bind to both the active site as well as non-specifically to the DNA/peptide binding pockets. Nonetheless, our results confirmed that the compounds were indeed binders of Tdp1, thus complementing our inhibition data.
pET-28a(+) plasmid encoding recombinant Tdp1 (residues 149–608) was obtained from GenScript. E. coli BL21(DE3) was used for recombinant protein production. Protein production was induced with 1 mM IPTG at 28 °C with overnight incubation. Tdp1 was purified using affinity and size exclusion chromatography. Fluorescence was measured using a PerkinElmer EnSpire Multimode Reader. Tdp1 concentration was 10 μM with varying compound concentrations. The buffer was 20 mM Tris and 250 mM NaCl (pH 8). The excitation wavelength was 280 nm and intrinsic fluorescence was measured at 350 nm. Control experiments with Tdp1 or the compound on its own were also conducted. Background fluorescence arising from the compounds was subtracted from the final spectrum. The total volume per well was 30 μL. The dissociation constant (KD) was calculated using Equation (1), which takes non-specific binding into account. y = Bmaxx/(KD + x) + Nsx(1) where y denotes the changes in fluorescence intensity; x denotes the concentration of the compounds; Bmax denotes the maximum changes in fluorescence intensity; and Ns is a scaling factor for non-specific binding. Experiments were conducted in triplicate.

[2] = target: T2, Tdp1 (Homo sapiens, UniProt Q9NUW8); assay: Real-time detection of Tdp1 activity (5'-FAM/3'-BHQ1 oligonucleotide biosensor); type: biochemical; conditions: 1.5 nM Tdp1, 50 nM oligonucleotide substrate, 26 °C
T2 construct: made in house; host or cells: Escherichia coli
T2 sequence (Q9NUW8 whole entry): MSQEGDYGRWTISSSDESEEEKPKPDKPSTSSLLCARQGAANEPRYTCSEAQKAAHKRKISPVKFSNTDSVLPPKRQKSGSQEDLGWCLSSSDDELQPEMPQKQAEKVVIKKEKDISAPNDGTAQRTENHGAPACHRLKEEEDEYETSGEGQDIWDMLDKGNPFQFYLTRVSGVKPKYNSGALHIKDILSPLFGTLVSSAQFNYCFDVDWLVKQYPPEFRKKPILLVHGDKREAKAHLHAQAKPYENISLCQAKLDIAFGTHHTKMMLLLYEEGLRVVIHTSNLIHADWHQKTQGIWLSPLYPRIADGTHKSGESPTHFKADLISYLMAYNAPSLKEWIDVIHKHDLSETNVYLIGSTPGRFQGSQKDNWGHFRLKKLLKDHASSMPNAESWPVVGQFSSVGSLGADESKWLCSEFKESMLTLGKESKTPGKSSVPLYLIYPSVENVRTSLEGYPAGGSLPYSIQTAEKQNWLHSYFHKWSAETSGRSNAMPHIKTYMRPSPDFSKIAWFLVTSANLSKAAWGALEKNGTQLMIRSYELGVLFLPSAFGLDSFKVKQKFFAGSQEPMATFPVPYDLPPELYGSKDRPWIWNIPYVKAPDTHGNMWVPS
Excerpt: We first studied the inhibition potency of our compounds to Tdp1 by using a real-time oligonucleotide biosensor assay that we have previously developed. The assay was based on the ability of Tdp1 to remove the fluorescence quencher from the 3’-end of DNA. The substrate is a 16-mer single-stranded oligonucleotide containing both a 5’-FAM fluorophore and a 3’-BHQ1 quencher.
A fluorophore quencher-coupled DNA-biosensor for real-time measurement of Tdp1 cleavage activity was recently designed in our laboratory. The biosensor is a 16-mer single-stranded oligonucleotide containing both a 5’-FAM fluorophore donor and a quenching 3’-BHQ1 moiety.
Recombinant protein Tdp1 was expressed in EsCherichia coli (pET 16B plasmid containing Tdp1 cDNA provided by Dr. K.W. Caldecott, University of Sussex, United Kingdom) and isolated as described. The reaction mixture in a final volume 200 μL contained Tdp1 reaction buffer (50 mM Tris-HCl, 50 mM NaCl, 7 mM β-mercaptoethanol), 50 nM oligonucleotide substrate, and varied concentrations of potential inhibitor. Purified Tdp1 was added in a final concentration of 1.5 nM.
The reaction mixtures were incubated at a constant temperature of 26 °C in a POLARstar OPTIMA fluorimeter, BMG LABTECH, GmbH, to measure fluorescence intensity every minute (Ex485/Em520 nm). Tdp1 inhibition was calculated by comparing the rate of increase in fluorescence of the biosensor in the presence of the compound to that of DMSO (1.5%) control wells. The measurements were carried out in at least two independent experiments. IC50 values were determined using a six-point concentration response curve. The data were imported into the MARS Data Analysis 2.0 program (BMG LABTECH) and the slope during the linear phase (data from 0 to 7 min) was calculated.

T1 sequence (Q9NUW8 149-608): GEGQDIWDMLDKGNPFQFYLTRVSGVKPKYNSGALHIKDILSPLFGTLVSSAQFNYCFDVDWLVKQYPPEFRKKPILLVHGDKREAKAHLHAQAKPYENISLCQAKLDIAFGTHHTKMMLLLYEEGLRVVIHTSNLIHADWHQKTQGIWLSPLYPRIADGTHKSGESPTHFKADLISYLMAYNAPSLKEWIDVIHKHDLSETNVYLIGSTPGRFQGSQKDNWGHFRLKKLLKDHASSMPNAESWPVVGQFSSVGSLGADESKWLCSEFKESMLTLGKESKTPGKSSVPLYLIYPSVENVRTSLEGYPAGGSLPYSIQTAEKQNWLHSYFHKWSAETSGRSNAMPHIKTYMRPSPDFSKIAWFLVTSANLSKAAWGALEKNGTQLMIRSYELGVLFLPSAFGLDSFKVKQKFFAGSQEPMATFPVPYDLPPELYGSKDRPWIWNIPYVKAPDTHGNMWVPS

Compound	Kd [1] [µM]	IC50 [2] [µM]
COc1ccc(/C=N/Nc2nc(-c3c(O)c(C)c(O)c4c3OC3=CC(O)=C(C(C)=O)C(=O)[C@@]34C)cs2)cc1COc1ccccc1F [(+)-17c, (2R)-4-Acetyl-10-{2-[(E)-2-({3-[(2-fluorophenoxy)methyl]-4-methoxyphenyl}methylidene)hydrazin-1-yl]-1,3-thiazol-4-yl}-5,11,13-trihydroxy-2,12-dimethyl-8-oxatricyclo[7.4.0.0^2,7]trideca-1(9),4,6,10,12-pentaen-3-one]	204 ± 23	0.041 ± 0.007
COc1ccc(/C=N/Nc2nc(-c3c(O)c(C)c(O)c4c3OC3=CC(O)=C(C(C)=O)C(=O)[C@@]34C)cs2)cc1COc1ccc(F)c(Cl)c1 [(+)-17d, (2R)-4-Acetyl-10-{2-[(E)-2-({3-[(3-chloro-4-fluorophenoxy)methyl]-4-methoxyphenyl}methylidene)hydrazin-1-yl]-1,3-thiazol-4-yl}-5,11,13-trihydroxy-2,12-dimethyl-8-oxatricyclo[7.4.0.0^2,7]trideca-1(9),4,6,10,12-pentaen-3-one]	130 ± 29	0.077 ± 0.003
COc1ccc(/C=N/Nc2nc(-c3c(O)c(C)c(O)c4c3OC3=CC(O)=C(C(C)=O)C(=O)[C@@]34C)cs2)cc1CSc1cc(C)ccc1C(C)(C)C [(+)-17g, (2R)-4-Acetyl-10-{2-[(E)-2-[(3-{[(2-tert-butyl-5-methylphenyl)sulfanyl]methyl}-4-methoxyphenyl)methylidene]hydrazin-1-yl]-1,3-thiazol-4-yl}-5,11,13-trihydroxy-2,12-dimethyl-8-oxatricyclo[7.4.0.0^2,7]trideca-1(9),4,6,10,12-pentaen-3-one]	223 ± 42	0.122 ± 0.025
COc1ccc(/C=N/Nc2nc(-c3c(O)c(C)c(O)c4c3OC3=CC(O)=C(C(C)=O)C(=O)[C@@]34C)cs2)cc1COc1ccc(Cl)c(C)c1 [(+)-17h, (2R)-4-Acetyl-10-{2-[(E)-2-({3-[(4-chloro-3-methylphenoxy)methyl]-4-methoxyphenyl}methylidene)hydrazin-1-yl]-1,3-thiazol-4-yl}-5,11,13-trihydroxy-2,12-dimethyl-8-oxatricyclo[7.4.0.0^2,7]trideca-1(9),4,6,10,12-pentaen-3-one]	188 ± 22	0.074 ± 0.001
COc1ccc(/C=N/Nc2nc(-c3c(O)c(C)c(O)c4c3OC3=CC(O)=C(C(C)=O)C(=O)[C@@]34C)cs2)cc1CN1CCN(c2ccc(F)cc2)CC1 [(+)-17i, (2R)-4-Acetyl-10-{2-[(E)-2-[(3-{[4-(4-fluorophenyl)piperazin-1-yl]methyl}-4-methoxyphenyl)methylidene]hydrazin-1-yl]-1,3-thiazol-4-yl}-5,11,13-trihydroxy-2,12-dimethyl-8-oxatricyclo[7.4.0.0^2,7]trideca-1(9),4,6,10,12-pentaen-3-one]	161 ± 22	0.08 ± 0.007
COc1ccc(/C=N/Nc2nc(-c3c(O)c(C)c(O)c4c3OC3=CC(O)=C(C(C)=O)C(=O)[C@@]34C)cs2)cc1Cn1nc(C)c([N+](=O)[O-])c1C [(+)-17k, (2R)-4-Acetyl-10-{2-[(E)-2-({3-[(3,5-dimethyl-4-nitro-1H-pyrazol-1-yl)methyl]-4-methoxyphenyl}methylidene)hydrazin-1-yl]-1,3-thiazol-4-yl}-5,11,13-trihydroxy-2,12-dimethyl-8-oxatricyclo[7.4.0.0^2,7]trideca-1(9),4,6,10,12-pentaen-3-one]	156 ± 8	0.054 ± 0.008
CC(=O)C1=C(O)C=C2Oc3c(-c4csc(N/N=C/c5cccnc5)n4)c(O)c(C)c(O)c3[C@]2(C)C1=O [(−)-16c, 3-[(1E)-(2-{4-[(1S)-12-Acetyl-3,5,11-trihydroxy-1,4-dimethyl-13-oxo-8-oxatricyclo[7.4.0.0^2,7]trideca-2(7),3,5,9,11-pentaen-6-yl]-1,3-thiazol-2-yl}hydrazin-1-ylidene)methyl]pyridin-1-ium bromide]	262 ± 25	0.154 ± 0.018
CC(=O)C1=C(O)C=C2Oc3c(-c4csc(N/N=C/c5cccs5)n4)c(O)c(C)c(O)c3[C@]2(C)C1=O [(−)-16g, (2S)-4-Acetyl-5,11,13-trihydroxy-2,12-dimethyl-10-{2-[(E)-2-[(thiophen-2-yl)methylidene]hydrazin-1-yl]-1,3-thiazol-4-yl}-8-oxatricyclo[7.4.0.0^2,7]trideca-1(9),4,6,10,12-pentaen-3-one]	281 ± 25	0.169 ± 0.006
CC(=O)C1=C(O)C=C2Oc3c(-c4csc(N/N=C/c5cc(Br)cs5)n4)c(O)c(C)c(O)c3[C@]2(C)C1=O [(−)-16h, (2S)-4-Acetyl-5,11,13-trihydroxy-2,12-dimethyl-10-{2-[(E)-2-[(4-bromothiophen-2-yl)methylidene]hydrazin-1-yl]-1,3-thiazol-4-yl}-8-oxatricyclo[7.4.0.0^2,7]trideca-1(9),4,6,10,12-pentaen-3-one]	355 ± 50	0.056 ± 0.004
CC(=O)C1=C(O)C=C2Oc3c(-c4csc(N/N=C/c5ccco5)n4)c(O)c(C)c(O)c3[C@]2(C)C1=O [(−)-16k, (2S)-4-Acetyl-5,11,13-trihydroxy-2,12-dimethyl-10-{2-[(E)-2-[(furan-2-yl)methylidene] hydrazin-1-yl]-1,3-thiazol-4-yl}-8-oxatricyclo[7.4.0.0^2,7]trideca-1(9),4,6,10,12-pentaen-3-one]	250 ± 24	0.046 ± 0.024
CC(=O)C1=C(O)C=C2Oc3c(-c4csc(N/N=C/c5ccoc5)n4)c(O)c(C)c(O)c3[C@]2(C)C1=O [(−)-16l, (2S)-4-Acetyl-5,11,13-trihydroxy-2,12-dimethyl-10-{2-[(E)-2-[(furan-3-yl)methylidene] hydrazin-1-yl]-1,3-thiazol-4-yl}-8-oxatricyclo[7.4.0.0^2,7]trideca-1(9),4,6,10,12-pentaen-3-one]	233 ± 9	0.178 ± 0.004
CC(=O)C1=C(O)C=C2Oc3c(-c4csc(N/N=C/c5ccc[nH]5)n4)c(O)c(C)c(O)c3[C@]2(C)C1=O [(−)-16m, (2S)-4-Acetyl-5,11,13-trihydroxy-2,12-dimethyl-10-{2-[(E)-2-[(1H-pyrrol-2-yl)methylidene] hydrazin-1-yl]-1,3-thiazol-4-yl}-8-oxatricyclo[7.4.0.0^2,7]trideca-1(9),4,6,10,12-pentaen-3-one]	354 ± 40	0.018 ± 0.001
CC(=O)C1=C(O)C=C2Oc3c(-c4csc(N/N=C/c5cnc[nH]5)n4)c(O)c(C)c(O)c3[C@]2(C)C1=O [(−)-16o, 5-[(1E)-(2-{4-[(1S)-12-Acetyl-3,5,11-trihydroxy-1,4-dimethyl-13-oxo-8-oxatricyclo[7.4.0.0^2,7]trideca-2(7),3,5,9,11-pentaen-6-yl]-1,3-thiazol-2-yl}hydrazin-1-ylidene)methyl]-1H-imidazol-1-ium bromide]	51 ± 4	0.57 ± 0.109
COc1ccc(/C=N/Nc2nc(-c3c(O)c(C)c(O)c4c3OC3=CC(O)=C(C(C)=O)C(=O)[C@]34C)cs2)cc1COc1ccccc1F [(−)-17c, (2S)-4-Acetyl-10-{2-[(E)-2-({3-[(2-fluorophenoxy)methyl]-4-methoxyphenyl}methylidene)hydrazin-1-yl]-1,3-thiazol-4-yl}-5,11,13-trihydroxy-2,12-dimethyl-8-oxatricyclo[7.4.0.0^2,7]trideca-1(9),4,6,10,12-pentaen-3-one]	74 ± 4	0.037 ± 0.01
COc1ccc(/C=N/Nc2nc(-c3c(O)c(C)c(O)c4c3OC3=CC(O)=C(C(C)=O)C(=O)[C@]34C)cs2)cc1COc1ccc(F)c(Cl)c1 [(−)-17d, (2S)-4-Acetyl-10-{2-[(E)-2-({3-[(3-chloro-4-fluorophenoxy)methyl]-4-methoxyphenyl}methylidene)hydrazin-1-yl]-1,3-thiazol-4-yl}-5,11,13-trihydroxy-2,12-dimethyl-8-oxatricyclo[7.4.0.0^2,7]trideca-1(9),4,6,10,12-pentaen-3-one]	76 ± 5	0.018 ± 0.001
